Results: US20070054916A1, “Aryl nitrogen-containing bicyclic compounds and methods of use” (Amgen Inc., priority 2004, published 2007)

These compounds were tested on production of TNF by monocytes activated with bacterial lipopolysaccharide (LPS) (assay: Lipopolysaccharide-activated monocyte TNF production assay). Details: Homo sapiens, read-out: IC50 values in the monocyte assay (LPS induced TNF release).
Assay type: cell-based
How it was run: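 Adherent human PBMC-derived monocytes (~70%) in DMEM/2% FCS were pre-incubated 60 min with nine two-fold compound dilutions, then stimulated with E. coli K532 LPS (added as 30 ng/ml solution) for 4 h at 37 °C. Supernatant TNF-α was measured by sandwich ELISA. IC50 was taken from a polynomial fit of TNF versus compound concentration.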
Compound `COc1ccc(OCCCN2CCN(C)CC2)cc1NC(=O)c1ccc(C)c(-c2ccc3nc(N)ncc3c2)c1` [Example 235] has an IC50 of no more than 25 µM. For `Cc1cc(F)c(C(=O)Nc2cccc(C(F)(F)F)c2)cc1-c1ccc2nc(N)ncc2c1` [Example 126, 5-(2-amino-6-quinazolinyl)-2-fluoro-4-methyl-N-(3-(trifluoromethyl)phenyl)benzamide], the IC50 was no more than 25 µM. `Cc1ccc(C(=O)Nc2ccc(I)cn2)cc1-c1ccc2nc(N)ncc2c1` [Example 353, 3-(2-amino-6-quinazolinyl)-N-(5-iodo-2-pyridinyl)-4-methylbenzamide] was tested, and the IC50 was no more than 25 µM. For `CNc1ncc2cc(-c3cc(NC(=O)c4cccc(Cl)c4Cl)ccc3C)cnc2n1` [Example 201, 2,3-dichloro-N-(4-methyl-3-(2-(methylamino)pyrido[2,3-d]pyrimidin-6-yl)phenyl)benzamide], the IC50 was no more than 25 µM. Compound `Cc1ccc(C(=O)Nc2ccc(C(F)(F)F)cn2)cc1-c1ccc2nc(N)ncc2c1` [Example 360, 3-(2-amino-6-quinazolinyl)-4-methyl-N-(5-(trifluoromethyl)-2-pyridinyl)benzamide] has an IC50 of no more than 25 µM. For `Cc1ccc(C(=O)Nc2ccc(C(C)(C)C)cc2)cc1-c1ccc2nc(N)ncc2c1` [Example 128, 3-(2-amino-6-quinazolinyl)-N-(4-(1,1-dimethylethyl)phenyl)-4-methylbenzamide], the IC50 was no more than 25 µM. In the case of `CC(C)c1cccc(C(=O)Nc2cc(-c3ccc4nc(N)ncc4c3)ccc2F)c1` [Example 491, N-(5-(2-amino-6-quinazolinyl)-2-fluorophenyl)-3-(1-methylethyl)benzamide], the IC50 is reported as no more than 25 µM. In the case of `CN(C)CCCN(C)c1ccc(C(F)(F)F)cc1NC(=O)c1cc(-c2ccc3nc(N)ncc3c2)ccc1F` [Example 84, 5-(2-amino-6-quinazolinyl)-N-(2-((3-(dimethylamino)propyl)(methyl)amino)-5-(trifluoromethyl)phenyl)-2-fluorobenzamide], the IC50 is reported as no more than 25 µM. With `Nc1ncc2cc(-c3ccc(F)c(NC(=O)C4CC4)c3)ccc2n1` [Example 486, N-(5-(2-amino-6-quinazolinyl)-2-fluorophenyl)cyclopropanecarboxamide] the IC50 was no more than 25 µM. With `CN1CC[C@@H](N(C)c2ccc(C(F)(F)F)cc2NC(=O)c2cc(-c3ccc4nc(N)ncc4c3)ccc2F)C1` [Example 419, 5-(2-amino-6-quinazolinyl)-2-fluoro-N-(2-(methyl((3R)-1-methyl-3-pyrrolidinyl)amino)-5-(trifluoromethyl)phenyl)benzamide] the IC50 was no more than 25 µM. For `CNc1ncc2cc(-c3cc(C(=O)Nc4cc(C(F)(F)F)ccc4F)ccc3C)ccc2n1` [Example 1, N-(2-fluoro-5-(trifluoromethyl)phenyl)-4-methyl-3-(2-(methylamino)quinazolin-6-yl)benzamide], the IC50 was no more than 25 µM. `COCCNc1ncc2cc(-c3cc(C(=O)Nc4cccc(C(F)(F)F)c4F)ccc3C)ccc2n1` [Example 24, N-(2-fluoro-3-(trifluoromethyl)phenyl)-4-methyl-3-(2-((2-(methyloxy)ethyl)amino)-6-quinazolinyl) benzamide] gave an IC50 of no more than 25 µM. With `CNc1ncc2cc(-c3cccc(NC(=O)c4cc(F)cc(C(F)(F)F)c4)c3C)cnc2n1` [Example 219] the IC50 was no more than 25 µM. With `Cc1cc(NC(=O)c2ccc(C)c(-c3ccc4nc(N)ncc4c3)c2)on1` [Example 323, 3-(2-amino-6-quinazolinyl)-4-methyl-N-(3-methyl-5-isoxazolyl)benzamide] the IC50 was no more than 25 µM. Work on `CN(C)CCCN(C)c1ccc(C(F)(F)F)cc1NC(=O)c1cc(-c2ccc3nc(N)ncc3c2)cn(C)c1=O` [Example 164, 5-(2-amino-6-quinazolinyl)-N-(2-((3-(dimethylamino)propyl)(methyl)amino)-5-(trifluoromethyl)phenyl)-1-methyl-2-oxo-1,2-dihydro-3-pyridinecarboxamide] yielded an IC50 of no more than 25 µM. With `CNc1ncc2cc(-c3cc(C(=O)Nc4cccc(C(F)(F)F)c4)ccc3C)ccc2n1` [Example 18, 4-methyl-3-(2-(methylamino)-6-quinazolinyl)-N-(3-(trifluoromethyl)phenyl)benzamide] the IC50 was no more than 25 µM. Work on `Cc1ccc(C(=O)Nc2ccc(N3CCCC3)c(C(=O)N3CCCC3)c2F)cc1-c1ccc2nc(N)ncc2c1` [Example 428, 3-(2-amino-6-quinazolinyl)-N-(2-fluoro-4-(1-pyrrolidinyl)-3-(1-pyrrolidinylcarbonyl)phenyl)-4-methylbenzamide] yielded an IC50 of no more than 25 µM. In the case of `Cc1ccc(C(=O)Nc2cccc(C(F)(F)F)n2)cc1-c1ccc2nc(N)ncc2c1` [Example 359, 3-(2-amino-6-quinazolinyl)-4-methyl-N-(6-(trifluoromethyl)-2-pyridinyl)benzamide], the IC50 is reported as no more than 25 µM. `Cc1ccc(C(=O)Nc2cccc(C(F)(F)F)c2F)cc1-c1ccc2nc(Nc3ccc(OCCCN4CCCCC4)cc3)ncc2c1` [Example 31, N-(2-fluoro-3-(trifluoromethyl)phenyl)-4-methyl-3-(2-((4-((3-(1-piperidinyl)propyl)oxy)phenyl)amino)-6-quinazotinyl) benzamide] was tested, and the IC50 was no more than 25 µM. Work on `COc1ccc(C(C)(C)C)cc1NC(=O)c1ccc(F)c(-c2ccc3nc(N)ncc3c2)c1` [Example 138, 3-(2-amino-6-quinazolinyl)-N-(5-(1,1-dimethylethyl)-2-(methyloxy)phenyl)-4-fluorobenzamide] yielded an IC50 of no more than 25 µM. In the case of `CC(=O)Nc1ccc(C(F)(F)F)cc1NC(=O)c1ccc(C)c(-c2ccc3nc(N)ncc3c2)c1` [Example 234, N-(2-(acetylamino)-5-(trifluoromethyl)phenyl)-3-(2-amino-6-quinazolinyl)-4-methylbenzamide], the IC50 is reported as no more than 25 µM. `Cc1ccc(C(=O)Nc2cc(C(=O)NCCN3CCOCC3)cc(C(F)(F)F)c2)cc1-c1ccc2nc(N)ncc2c1` [Example 6] was tested, and the IC50 was no more than 25 µM. `Cc1ccc(C(=O)Nc2cccc(C(F)(F)F)c2F)cc1-c1ccc2nc(Nc3ccc(N4CCN(C)CC4)cc3)ncc2c1` [Example 30, N-(2-fluoro-3-(trifluoromethyl)phenyl)-4-methyl-3-(2-((4-(4-methyl-1-piperazinyl)phenyl)amino)-6-quinazolinyl) benzamide] showed an IC50 of no more than 25 µM. With `Cc1ccc(C(=O)NCc2ccccn2)cc1-c1ccc2nc(N)ncc2c1` [Example 426, 3-(2-amino-6-quinazolinyl)-4-methyl-N-(2-pyridinylmethyl) benzamide] the IC50 was no more than 25 µM. `COc1c(Cl)cccc1NC(=O)c1ccc(C)c(-c2ccc3nc(N)ncc3c2)c1` [Example 284, 3-(2-amino-6-quinazolinyl)-N-(5-chloro-8-(methyloxy)-phenyl)-4-methylbenzamide] gave an IC50 of no more than 25 µM. With `Cc1ccc(C(=O)Nc2c3c(nn2CCC#N)CCC3)cc1-c1ccc2nc(N)ncc2c1` [Example 304, 3-(2-amino-6-quinazolinyl)-N-(2-(2-cyanoethyl)-2,4,5,6-tetrahydrocyclopenta [c]pyrazol-3-yl)-4-methylbenzamide] the IC50 was no more than 25 µM. `Cc1cccc(C)c1-c1ccc2nc(NCCN3CCOCC3)ncc2c1` [Example 534, 6-(2,6-dimethylphenyl)-N-(2-morpholinoethyl)quinazolin-2-amine] gave an IC50 of no more than 25 µM. In the case of `Cc1ccc(C(=O)Nc2cc(C(F)(F)F)ccc2N(C)C)cc1-c1ccc2nc(N)ncc2c1` [Example 81, 3-(2-amino-6-quinazolinyl)-N-(2-(dimethylamino)-5-(trifluoromethyl)phenyl)-4-methylbenzamide], the IC50 is reported as no more than 25 µM. In the case of `Nc1ncc2cc(-c3ccc(F)c(NC(=O)c4cc(F)cc(C(F)(F)F)c4)c3)ccc2n1` [Example 489, N-(5-(2-amino-6-quinazolinyl)-2-fluorophenyl)-3-fluoro-5-(trifluoromethyl)benzamide], the IC50 is reported as no more than 25 µM. `CNc1ncc2cc(-c3cc(NC(=O)c4cc(F)cc(C(F)(F)F)c4)ccc3C)cnc2n1` [Example 217, 3-fluoro-N-(4-methyl-3-(2-(methylamino)pyrido[2,3-d]pyrimidin-6-yl)phenyl)-5-(trifluoromethyl) benzamide] gave an IC50 of no more than 25 µM. For `CN1CCN(c2ccc(C(F)(F)F)cc2C(=O)Nc2cc(-c3ccc4nc(N)ncc4c3)ccc2F)CC1` [Example 434, N-(5-(2-aminoquinazolin-6-yl)-2-fluorophenyl)-2-(4-methylpiperazin-1-yl)-5-(trifluoromethyl)benzamide], the IC50 was no more than 25 µM. Compound `CNc1ncc2cc(-c3cc(C(=O)Nc4cc(C(F)(F)F)ccc4N(C)CCCN(C)C)ccc3C)cnc2n1` [Example 193, N-(2-((3-(dimethylamino)propyl)(methyl)amino)-5-(trifluoromethyl)phenyl)-4-methyl-3-(2-(methylamino)pyrido[2,3-d]pyrimidin-6-yl)benzamide] has an IC50 of no more than 25 µM. Compound `CNc1ncc2cc(-c3cc(NC(=O)c4cccc(C(F)(F)F)c4)ccc3C)cnc2n1` [Example 199, N-(4-methyl-3-(2-(methylamino)pyrido[2,3-d]pyrimidin-6-yl)phenyl)-3-(trifluoromethyl) benzamide] has an IC50 of no more than 25 µM. For `Cc1ccc(C(=O)Nc2cccc(C(F)(F)F)c2C)cc1-c1ccc2nc(NCCN3CCCC3)ncc2c1` [Example 33, 4-methyl-N-(2-methyl-3-(trifluoromethyl)phenyl)-3-(2-((2-(1-pyrrolidinyl)ethyl)amino)-6-quinazolinyl) benzamide], the IC50 was no more than 25 µM. In the case of `CCN(CC)CCNC(=O)c1cc(NC(=O)c2ccc(C)c(-c3ccc4nc(N)ncc4c3)c2)cc(C(F)(F)F)c1` [Example 7], the IC50 is reported as no more than 25 µM. `Cc1ccc(C(=O)Nc2cccc(C(F)(F)F)c2)cc1-c1ccc2nc(NC3CC3)ncc2c1` [Example 29, 3-(2-(cyclopropylamino)-6-quinazolinyl)-4-methyl-N-(3-(trifluoromethyl)phenyl)benzamide] showed an IC50 of no more than 25 µM. `Cc1ccc(C(=O)Nc2cc(C(F)(F)F)ccc2C(F)(F)F)cc1-c1ccc2nc(N)ncc2c1` [Example 77, 3-(2-amino-6-quinazolinyl)-N-(2,5-bis(trifluoromethyl)phenyl)-4-methylbenzamide] showed an IC50 of no more than 25 µM. `Cc1ccc(C(=O)Nc2nnc(C(F)(F)F)s2)cc1-c1ccc2nc(N)ncc2c1` [Example 343, 3-(2-amino-6-quinazolinyl)-4-methyl-N-(5-(trifluoromethyl)-1,3,4-thiadiazol-2-yl)benzamide] showed an IC50 of no more than 25 µM.
